From US20220313701A1, “MODULATORS OF TREX1” (Constellation Pharmaceuticals, Inc., priority 2019, published 2022)
pIC50: −log10 of the molar value.

Key:
[1] = target: T1, human TREX2 (residues M44-A279) (Homo sapiens, UniProt Q9BQ50); experiment: TREX2 Biochemical Assay (fluorescence assay, degradation of dsDNA substrate); settings: 2.5 nM TREX2, 60 nM dsDNA substrate, 25 minutes at room temperature
T1 construct: human TREX2 (residues M44-A279, expressed in E. coli); His-Tev (His tag with TEV site) (N); made in house; host or cells: E. coli
T1 sequence (Q9BQ50 44-279 isoform Q9BQ50-1): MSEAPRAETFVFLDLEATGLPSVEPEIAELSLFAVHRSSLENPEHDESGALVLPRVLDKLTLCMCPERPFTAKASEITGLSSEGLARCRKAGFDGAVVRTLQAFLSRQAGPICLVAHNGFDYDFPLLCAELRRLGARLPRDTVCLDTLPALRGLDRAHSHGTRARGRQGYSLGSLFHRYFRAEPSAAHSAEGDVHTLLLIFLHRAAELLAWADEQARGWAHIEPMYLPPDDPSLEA
Procedure: Degradation of the dsDNA liberates free fluorophore to produce a fluorescent signal. Specifically, 7.5 μL of N-terminally His-Tev tagged human TREX2 (residues M44-A279, expressed in E. coli and purified in house) in reaction buffer (50 mM Tris (pH 7.4), 150 mM NaCl, 2 mM DTT, 0.1 mg/mL BSA, 0.01% (v/v) Tween-20 and 100 mM MgCl2) was added to a 384-well Black ProxiPlate Plus (Perkin Elmer) which already contained compound (150 nL) at varying concentrations as a 10 point dose-response in DMSO. To this was added 7.5 μL of dsDNA substrate (Strand A: 5′ TEX615/GCT AGG CAG 3′; Strand B: 5′ CTG CCT AGC/IAbRQSp (IDT)) in reaction buffer. Final concentrations were 2.5 nM TREX2, 60 nM dsDNA substrate in reaction buffer with 1.0% DMSO (v/v). After 25 minutes at room temperature, reactions were quenched by the addition of 5 μL of stop buffer (same as reaction buffer plus 200 mM EDTA). Final concentrations in the quenched reaction mixture were […] TREX2, 45 nM DNA and 50 mM EDTA in a volume of 20 μL. After a 5-minute incubation at room temperature, plates were read in a laser sourced Envision (Perkin-Elmer), measuring fluorescence at 615 nm following excitation w/570 nm light. IC50 values were calculated by comparing the measured fluorescence at 615 nm ratio relative to control wells pre-quenched w/stop buffer (100% inhibition) and no inhibitor (0% inhibition) controls as using non-linear least square four parameter fits and either Genedata or GraphPad Prism (GraphPad Software, Inc.).

full length human TREX1 = target: T2, full length human TREX1 (Homo sapiens, UniProt Q9NSU2); experiment: TREX1 Biochemical Assay (fluorescence assay, degradation of dsDNA substrate); settings: 150 pM TREX1, 60 nM dsDNA substrate, 25 minutes at room temperature
T2 construct: N-terminally His-Tev tagged full length human TREX1; His-Tev (His tag with TEV site) (N); made in house; host or cells: E. coli
T2 sequence (Q9NSU2 1-314): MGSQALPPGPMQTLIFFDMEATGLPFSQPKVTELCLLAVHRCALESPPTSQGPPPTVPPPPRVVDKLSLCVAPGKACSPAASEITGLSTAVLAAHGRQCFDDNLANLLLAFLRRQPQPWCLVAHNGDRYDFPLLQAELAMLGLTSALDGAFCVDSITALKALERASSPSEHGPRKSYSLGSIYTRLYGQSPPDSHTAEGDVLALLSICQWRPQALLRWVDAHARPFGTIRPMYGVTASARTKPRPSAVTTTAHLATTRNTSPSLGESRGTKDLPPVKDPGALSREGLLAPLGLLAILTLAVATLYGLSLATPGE
Procedure: Degradation of the dsDNA liberates free fluorophore to produce a fluorescent signal. Specifically, 7.5 μL of N-terminally His-Tev tagged full length human TREX1 (expressed in E. coli and purified in house) in reaction buffer (50 mM Tris (pH 7.4), 150 mM NaCl, 2 mM DTT, 0.1 mg/mL BSA, 0.01% (v/v) Tween-20 and either 100 mM MgCl2) was added to a 384-well Black ProxiPlate Plus (Perkin Elmer) which already contained compound (150 nL) at varying concentrations as a 10 point dose-response in DMSO. To this was added 7.5 μL of dsDNA substrate (Strand A: 5′ TEX615/GCT AGG CAG 3′; Strand B: 5′ CTG CCT AGC/IAbRQSp (Integrated DNA Technologies)) in reaction buffer. Final concentrations were 150 pM TREX1, 60 nM dsDNA substrate in reaction buffer with 1.0% DMSO (v/v). After 25 minutes at room temperature, reactions were quenched by the addition of 5 μL of stop buffer (same as reaction buffer plus 200 mM EDTA). Final concentrations in the quenched reaction were 112.5 pM TREX1, 45 nM DNA and 50 mM EDTA in a volume of 20 μL. After a 5-minute incubation at room temperature, plates were read in a laser sourced Envision (Perkin-Elmer), measuring fluorescence at 615 nm following excitation w/570 nm light. IC50 values were calculated by comparing the measured fluorescence at 615 nm ratio relative to control wells pre-quenched w/stop buffer (100% inhibition) and no inhibitor (0% inhibition) controls as using non-linear least square four parameter fits and either Genedata or GraphPad Prism (GraphPad Software, Inc.).

pIC50 [1] | pIC50 (full length human TREX1) | SMILES
< 4.00 | 5.00 to 6.00 | Cc1nn(C)cc1-c1cncc(N2CC[C@@](O)(c3ccc(F)c(F)c3)C[C@@H]2C)n1 (racemic) [Example 102, (rac)-cis-4-(3,4-difluorophenyl)-1-(6-(1,3-dimethyl-1H-pyrazol-4-yl)pyrazin-2-yl)-2-methylpiperidin-4-ol]
< 4.00 | 5.00 to 6.00 | Cc1nn(C)cc1-c1cncc(N2CC[C@@](O)(c3ccc(F)c(F)c3)C[C@H]2C)n1 (racemic) [Example 103, (rac)-trans-4-(3,4-difluorophenyl)-1-(6-(1,3-dimethyl-1H-pyrazol-4-yl)pyrazin-2-yl)-2-methylpiperidin-4-ol]
4.00 to 5.00 | 5.00 to 6.00 | OC1(c2ccc(Cl)cc2)CCN(c2cncc(-n3cccn3)n2)CC1 [Example 1, 1-(6-(1H-pyrazol-1-yl)pyrazin-2-yl)-4-(4-chlorophenyl)piperidin-4-ol]
< 4.00 | < 5.00 | COc1ccc(C2(O)CCN(c3cncc(-n4cccn4)n3)CC2)cc1 [Example 2, 1-(6-(1H-pyrazol-1-yl)pyrazin-2-yl)-4-(4-methoxyphenyl)piperidin-4-ol]
< 4.00 | < 5.00 | OC1(c2ccccc2F)CCN(c2cncc(-n3cccn3)n2)CC1 [Example 3, 1-(6-(1H-pyrazol-1-yl)pyrazin-2-yl)-4-(2-fluorophenyl)piperidin-4-ol]
4.00 to 5.00 | 6.00 to 7.00 | Cn1cc(-c2cncc(N3CCC(O)(c4ccc(F)c(F)c4)CC3)n2)cn1 [Example 4, 4-(3,4-difluorophenyl)-1-(6-(1-methyl-1H-pyrazol-4-yl)pyrazin-2-yl)piperidin-4-ol]
< 4.00 | < 5.00 | Cn1cc(-c2cncc(N3CCC(O)(Cc4ccccc4)CC3)n2)cn1 [Example 5, 4-benzyl-1-(6-(1-methyl-1H-pyrazol-4-yl)pyrazin-2-yl)piperidin-4-ol]
< 4.00 | < 5.00 | Cn1cc(-c2cncc(N3CCC(O)(CCc4ccccc4)CC3)n2)cn1 [Example 6, 1-(6-(1-methyl-1H-pyrazol-4-yl)pyrazin-2-yl)-4-phenethylpiperidin-4-ol]
< 4.00 | 5.00 to 6.00 | Cn1cc(-c2cncc(N3CCC(O)(c4ccc(F)cc4)CC3)n2)cn1 [Example 7, 4-(4-fluorophenyl)-1-(6-(1-methyl-1H-pyrazol-4-yl)pyrazin-2-yl)piperidin-4-ol]
< 4.00 | 6.00 to 7.00 | Cc1nn(C)cc1-c1cncc(N2CCC(O)(c3ccc(F)cc3)CC2)n1 [Example 8, 1-(6-(1,3-dimethyl-1H-pyrazol-4-yl)pyrazin-2-yl)-4-(4-fluorophenyl)piperidin-4-ol]
4.00 to 5.00 | > 7.00 | Cc1nn(C)cc1-c1cncc(N2CCC(O)(c3ccc(F)c(F)c3)CC2)n1 [Example 9, 4-(3,4-difluorophenyl)-1-(6-(1,3-dimethyl-1H-pyrazol-4-yl)pyrazin-2-yl)piperidin-4-ol]
4.00 to 5.00 | > 7.00 | Cn1cc(-c2cncc(N3CCC(O)(c4ccc(F)c(F)c4)CC3)n2)c(C(F)(F)F)n1 [Example 10, 4-(3,4-difluorophenyl)-1-(6-(1-methyl-3-(trifluoromethyl)-1H-pyrazol-4-yl)pyrazin-2-yl)piperidin-4-ol]
4.00 to 5.00 | 6.00 to 7.00 | Cn1cc(-c2cncc(N3CCC(O)(c4ccc(F)c(F)c4)CC3)n2)c(C2CC2)n1 [Example 11, 1-(6-(3-cyclopropyl-1-methyl-1H-pyrazol-4-yl)pyrazin-2-yl)-4-(3,4-difluorophenyl)piperidin-4-ol]
< 4.00 | 5.00 to 6.00 | Cc1c(-c2cncc(N3CCC(O)(c4ccc(F)cc4)CC3)n2)cnn1C [Example 12, 1-(6-(1,5-dimethyl-1H-pyrazol-4-yl)pyrazin-2-yl)-4-(4-fluorophenyl)piperidin-4-ol]
< 4.00 | 5.00 to 6.00 | OC1(c2ccc(F)cc2)CCN(c2cncc(-c3cnn(C(F)F)c3)n2)CC1 [Example 13, 1-(6-(1-(difluoromethyl)-1H-pyrazol-4-yl)pyrazin-2-yl)-4-(4-fluorophenyl)piperidin-4-ol]
< 4.00 | 5.00 to 6.00 | OC1(c2ccc(F)cc2)CCN(c2cncc(-c3cnn(Cc4ccccc4)c3)n2)CC1 [Example 14, 1-(6-(1-benzyl-1H-pyrazol-4-yl)pyrazin-2-yl)-4-(4-fluorophenyl)piperidin-4-ol]
< 4.00 | 6.00 to 7.00 | Cc1ccc(-c2cncc(N3CCC(O)(c4ccc(F)cc4)CC3)n2)cn1 [Example 15, 4-(4-fluorophenyl)-1-(6-(6-methylpyridin-3-yl)pyrazin-2-yl)piperidin-4-ol]
< 4.00 | 5.00 to 6.00 | OC1(c2ccc(F)cc2)CCN(c2cncc(-c3cccnc3)n2)CC1 [Example 16, 4-(4-fluorophenyl)-1-(6-(pyridin-3-yl)pyrazin-2-yl)piperidin-4-ol]
4.00 to 5.00 | 6.00 to 7.00 | Cc1ccc(-c2cncc(N3CCC(O)(c4ccc(F)c(F)c4)CC3)n2)c(C)n1 [Example 17, 4-(3,4-difluorophenyl)-1-(6-(2,6-dimethylpyridin-3-yl)pyrazin-2-yl)piperidin-4-ol]
< 4.00 | 5.00 to 6.00 | OC1(c2ccc(F)cc2)CCN(c2cncc(-c3cncnc3)n2)CC1 [Example 18, 4-(4-fluorophenyl)-1-(6-(pyrimidin-5-yl)pyrazin-2-yl)piperidin-4-ol]
< 4.00 | 5.00 to 6.00 | Cc1noc(C)c1-c1cncc(N2CCC(O)(c3ccc(F)cc3)CC2)n1 [Example 19, 1-(6-(3,5-dimethylisoxazol-4-yl)pyrazin-2-yl)-4-(4-fluorophenyl)piperidin-4-ol]
< 4.00 | 5.00 to 6.00 | CN(C)C(=O)c1cccc(-c2cncc(N3CCC(O)(c4ccc(F)cc4)CC3)n2)c1 [Example 20, 3-(6-(4-(4-fluorophenyl)-4-hydroxypiperidin-1-yl)pyrazin-2-yl)-N,N-dimethylbenzamide]
< 4.00 | 5.00 to 6.00 | CNC(=O)c1ccc(-c2cncc(N3CCC(O)(c4ccc(F)cc4)CC3)n2)cc1 [Example 21, 4-(6-(4-(4-fluorophenyl)-4-hydroxypiperidin-1-yl)pyrazin-2-yl)-N-methylbenzamide]
< 4.00 | 5.00 to 6.00 | CS(=O)(=O)c1ccc(-c2cncc(N3CCC(O)(c4ccc(F)cc4)CC3)n2)cc1 [Example 22, 4-(4-fluorophenyl)-1-(6-(4-(methylsulfonyl)phenyl)pyrazin-2-yl)piperidin-4-ol]
< 4.00 | 5.00 to 6.00 | N#Cc1ccccc1-c1cncc(N2CCC(O)(c3ccc(F)cc3)CC2)n1 [Example 23, 2-(6-(4-(4-fluorophenyl)-4-hydroxypiperidin-1-yl)pyrazin-2-yl)benzonitrile]
